Holding throughout (format): cell-based
In test [1] the test system is TEAD1. The test can be described thus: MCF-7 TEAD1-luciferase reporter assay (MCF7-TEAD-Luc). The settings on record: MCF7 cells, overnight; for IC50: Homo sapiens; for TEAD1-Luc MCF7: Max Inhibition: % of DMSO-treated control. Put shortly:
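MCF7 cells with a TEAD luciferase reporter were seeded at 10,000 per well, grown 24 hours at 37° C, then treated overnight with serially diluted compound. Luciferase signal was normalized as % inhibition relative to DMSO controls, and IC50 came from a four-parameter fit.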

The subject of test [2] is NCI-H226 cells. The test can be described thus: Cell proliferation and viability assay (CPA) in NCI-H226 cells. As to conditions: up to 6 d; for IC50: Homo sapiens, 144 h, read-out: CPA NCI-H226 IC50 Ave. Here is the method:
Compound potency and efficacy in inhibiting cell proliferation and viability was assessed in multiple cell lines. For example, NCI-H226 cells (ATCC #CRL-5826) were seeded at 2000 cells in 200 μL medium per well of a 96-well plate (Corning #3610) and incubated at 37° C. for 24 hours, then treated with serial diluted compounds for up to 6 d. Viable cells were measured by CellTiter-Glo 2.0 Cell Viability Assay (Promega #G9243), and the luminescence signal was read using an EnSight Multimode plate reader (PerkinElmer, model 9MLDHH34000000, integration time 100 ms) with Kaleido 3.0. software. For data analysis, dose-dependent curves were plotted as “inhibition” (% of DMSO-treated control wells), and were fitted by four-parametric model in GraphPad Prism to obtain IC50 values. […]

Another test concerns H2052 cells. The test can be described thus: Cell proliferation and viability assay (CPA) in H2052 cells. As to conditions: for IC50: Homo sapiens, NCI-H2052, read-out: CPA H2052 IC50 Ave. On the procedure:
(§1) Compound potency and efficacy in inhibiting cell proliferation and viability was assessed in multiple cell lines. For example, NCI-H226 cells (ATCC #CRL-5826) were seeded at 2000 cells in 200 μL medium per well of a 96-well plate (Corning #3610) and incubated at 37° C. for 24 hours, then treated with serial diluted compounds for up to 6 d. Viable cells were measured by CellTiter-Glo 2.0 Cell Viability Assay (Promega #G9243), and the luminescence signal was read using an EnSight Multimode plate reader (PerkinElmer, model 9MLDHH34000000, integration time 100 ms) with Kaleido 3.0. software. For data analysis, dose-dependent curves were plotted as “inhibition” (% of DMSO-treated control wells), and were fitted by four-parametric model in GraphPad Prism to obtain IC50 values.
(§2) Alternatively, cells were plated at 2000 cells in 200 μL medium per well of a 96-well plate (Corning #3585) overnight, treated with compound for 7 days, cell density images taken by Incycte S3 live cell analysis instrument (Sartorius) every 24 hours at the same time. Images were analyzed by Incucyte's AI-driven software to get C “% confluence” for every image. Dose-dependent curves were plotted as “% inhibition” (% o of DMSO-treated control wells) and were fitted by four-parametric model in GraphPad Prism to obtain IC50 values.

For test [3], the system named is TEAD1. The test can be described thus: Palmitoylation assay, TEAD1 (HEK293T cells). The settings on record: 3 um compound, 24 hours. Here is the method:
(§3) Tagged TEAD constructs were cloned in pTriEx-6 (Novagen #71559) and transiently transfected into HEK293T cells for 24 hours. Then cells were treated with compounds for 24 hours, or treated with compounds plus 25 μM alkyne palmitic acid (for palmitoylation assay), and cell pellets were collected. Cells were lysed in lysis Buffer (100 mM Tris-HCl, 150 mM NaCl, 1% Triton, 5 mg/mL protease inhibitor cocktail), centrifuged for 10 min at 15000 g, TEAD proteins were pulled down and subjected to click-chemistry with TAMRA azide (Click Chemistry Tools #AZ109) to label compound-modified protein. Protein bands were separated by SDS-gel electrophoresis, target bands at expected molecular size were visualized using BioRad ChemiDoc Imaging system, band intensities were quantified by Image Studio.

Test [4] deals with TEAD1. The test can be described thus: ELISA assay in H226 cells, TEAD1. As to conditions: Homo sapiens, NCI-H226, overnight. On the procedure:
(§4) ELISA: 750k cells were plated per well of 6-well plate for 24 hours, treated with compounds overnight, cells were then lysed in lysis Buffer with 5 mg/mL protease inhibitor (Cell Signaling #9803), centrifuged at 12000 g for 5 min. Cell lysates were normalized to 2 mg/mL for subsequent assays. A 96-well assay plate (Corning #3690) was coated with TEAD antibodies (anti-TEAD1: Cell Signaling #12292, 1:100; anti-TEAD2: LSBio #LS-C101693-100, 1:50; anti-TEAD3: Abcam #ab75192, 1:100; anti-TEAD4: Abcam #ab58310, 1:400) overnight at 4° C. Plates were washed with TBST (Thermo Fisher #28360) for 3 times, blocked in 100 μL blocking buffer (2% BSA-TBST, Sigma #A7030) for 1 hour at room temperature. 50 μL cell lysates were incubated overnight at 4° C. with shaking. The next day, plates were washed with TBST three times, incubated with 1:125 anti-YPA-HRP (Cell Signaling #15028S) for 4 hours at 4° C., followed by 3× washing in TBST, then incubated in HRP substrate (Thermo Fisher #34021) for 10 min at room temperature, reaction was stopped by TMB stop solution (Thermo Fisher #N600). Signal was read at wavelength 450 nm.
Background: In an ELISA, binding on a coated surface is turned into a signal by an enzyme label.

Test [5] has as its target T1, TEAD2 (Homo sapiens, UniProt Q15562). The test can be described thus: ELISA assay in H226 cells, TEAD2. On the set-up: endogenous in cells; host or cells: H226. Here is the method:
as §4

In test [6] the target is T2, TEAD3 (Homo sapiens, UniProt Q99594). The test can be described thus: ELISA assay in H226 cells, TEAD3. Also noted: endogenous in cells; host or cells: H226. Here is the method: as §4
Target sequence in this assay (Q99594 2-435 limits assumed): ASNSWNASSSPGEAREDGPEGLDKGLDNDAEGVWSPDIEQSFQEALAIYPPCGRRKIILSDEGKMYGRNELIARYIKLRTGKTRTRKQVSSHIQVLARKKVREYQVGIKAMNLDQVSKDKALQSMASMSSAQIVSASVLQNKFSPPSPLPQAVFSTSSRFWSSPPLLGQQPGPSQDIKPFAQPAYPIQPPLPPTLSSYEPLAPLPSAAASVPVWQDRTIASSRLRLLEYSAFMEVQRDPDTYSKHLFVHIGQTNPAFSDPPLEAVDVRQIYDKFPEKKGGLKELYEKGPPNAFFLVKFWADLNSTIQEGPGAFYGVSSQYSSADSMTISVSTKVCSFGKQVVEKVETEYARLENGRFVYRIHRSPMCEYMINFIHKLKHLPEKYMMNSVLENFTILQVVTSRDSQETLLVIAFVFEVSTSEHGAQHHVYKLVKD
The target in test [7] is T3, TEAD4 (Homo sapiens, UniProt Q15561). The test can be described thus: ELISA assay in H226 cells, TEAD4. Also noted: endogenous in cells; host or cells: H226. As to conditions: overnight. On the procedure:
as §4

Test [8] has as its target T1, TEAD2. The test can be described thus: Palmitoylation assay, TEAD2 (HEK293T cells). On the set-up: unspecified tag; expressed in transfected cells; host or cells: HEK293T. The settings on record: 3 um compound, 24 hours. On the procedure: as §3
Test [9] addresses T2, TEAD3. The test can be described thus: Palmitoylation assay, TEAD3 (HEK293T cells). Also noted: unspecified tag; expressed in transfected cells; host or cells: HEK293T. The settings on record: 3 um compound, 24 hours. On the procedure:
as §3
Target sequence in this assay (Q99594 whole entry): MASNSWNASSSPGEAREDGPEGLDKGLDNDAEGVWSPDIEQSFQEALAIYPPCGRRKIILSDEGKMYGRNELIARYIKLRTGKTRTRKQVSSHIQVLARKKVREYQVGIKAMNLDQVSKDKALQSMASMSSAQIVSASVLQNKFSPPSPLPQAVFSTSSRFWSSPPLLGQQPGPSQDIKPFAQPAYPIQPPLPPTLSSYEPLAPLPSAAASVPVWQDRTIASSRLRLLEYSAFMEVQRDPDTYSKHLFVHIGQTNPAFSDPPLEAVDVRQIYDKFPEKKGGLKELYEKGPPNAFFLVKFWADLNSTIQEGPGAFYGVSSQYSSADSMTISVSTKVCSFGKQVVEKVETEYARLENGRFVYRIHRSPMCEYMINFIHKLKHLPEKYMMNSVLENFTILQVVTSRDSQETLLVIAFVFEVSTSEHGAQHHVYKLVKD

The target in test [10] is T3, TEAD4. The test can be described thus: Palmitoylation assay, TEAD4 (HEK293T cells). On the set-up: unspecified tag; expressed in transfected cells; host or cells: HEK293T. As to conditions: 3 um compound, 24 hours. On the procedure:
as §3

Test [11] concerns NCI-H226 cells. The test can be described thus: Cell proliferation and viability assay (CPA) in NCI-H226 cells. As to conditions: up to 6 d. Here is the method: as §1, §2

Four compounds from patent US20260347319A1, “YAP/TAZ-TEAD ONCOPROTEINS INHIBITORS” (BridGene Biosciences, Inc., priority 2022, published 2026) can be followed below.

Read-outs that look alike come from different tables or passages of the source. Bounds are passed on as bounds.

T3 sequence (Q15561 whole entry): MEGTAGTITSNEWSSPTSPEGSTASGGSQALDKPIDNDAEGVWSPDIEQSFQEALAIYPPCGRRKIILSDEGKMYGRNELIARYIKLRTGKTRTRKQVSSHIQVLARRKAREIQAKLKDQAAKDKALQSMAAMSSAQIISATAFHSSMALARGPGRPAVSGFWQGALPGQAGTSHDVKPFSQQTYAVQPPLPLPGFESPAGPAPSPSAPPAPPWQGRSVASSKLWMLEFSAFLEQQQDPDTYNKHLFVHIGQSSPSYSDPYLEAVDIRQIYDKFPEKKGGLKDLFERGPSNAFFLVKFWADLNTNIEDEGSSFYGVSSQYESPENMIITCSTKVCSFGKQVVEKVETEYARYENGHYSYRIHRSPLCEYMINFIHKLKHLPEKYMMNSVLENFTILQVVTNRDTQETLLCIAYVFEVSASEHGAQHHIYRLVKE
T1 sequence (Q15562 whole entry): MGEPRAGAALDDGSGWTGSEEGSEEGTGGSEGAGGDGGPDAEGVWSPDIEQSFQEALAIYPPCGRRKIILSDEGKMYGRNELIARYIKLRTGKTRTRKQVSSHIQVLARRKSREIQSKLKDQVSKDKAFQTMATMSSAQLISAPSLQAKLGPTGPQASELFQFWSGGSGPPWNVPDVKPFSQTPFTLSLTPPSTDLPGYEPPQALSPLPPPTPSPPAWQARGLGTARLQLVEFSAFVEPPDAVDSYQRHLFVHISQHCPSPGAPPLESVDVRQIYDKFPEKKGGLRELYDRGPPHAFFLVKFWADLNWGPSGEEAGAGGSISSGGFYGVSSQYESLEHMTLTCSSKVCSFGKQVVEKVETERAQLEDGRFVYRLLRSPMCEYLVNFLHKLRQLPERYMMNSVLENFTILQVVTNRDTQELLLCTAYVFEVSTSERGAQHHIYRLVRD

Turning to `C=CC(=O)N1CC[C@H](/C=C/c2ccc(C(F)(F)F)cc2)C1` (single isomer, unassigned) [Example 10], the IC50 (in general, the midpoint of a concentration-inhibition curve) was ≤ 10 nM in the test with TEAD1 [1]; ≤ 100 nM in the test on NCI-H226 cells [2]; ≤ 100 nM with H2052 cells; 13 nM in the test with TEAD1 [4]; 89 nM at TEAD2 [5] (overnight); 7.2 nM at TEAD3 [6] (overnight). Besides, at TEAD4 [7], it took 1010 nM to reach half-maximal inhibition (IC50). The “TEAD1-Luc MCF7: Max Inhibition” value in the test on TEAD1 [1] is given as “A (A ≥ 75%)”. Moreover, the “CPA NCI-H226 Max Inh Ave” value with NCI-H226 cells [2] is given as “B (75% > B ≥ 50%)”. Also, in the test with H2052 cells, the “CPA H2052 Max Inh Ave” value is on record as “B (75% > B ≥ 50%)”. Besides, the “TEAD1 Inh (palmitoylation)” value in the test with TEAD1 [3] was 94%. Further, on TEAD2 [8], the “TEAD2 Inh (palmitoylation)” value is given as 57%. The “TEAD3 Inh (palmitoylation)” value at TEAD3 [9] is recorded as 98%. Also, the “TEAD4 Inh (palmitoylation)” value on TEAD4 [10] is reported as 52%.

Consider `C=CC(=O)N1C[C@@H](/C=C/c2ccc(C(F)(F)F)cc2)[C@H](Nc2ncccn2)C1` (single isomer, unassigned) [Example 83], for which the IC50 is 10 to 100 nM in the test with TEAD1 [1]; 66.4 nM with TEAD1 [4]; 17.7 nM against TEAD2 [5] (overnight); 107 nM at TEAD3 [6] (overnight); 219 nM against TEAD4 [7]. Further, the “TEAD1-Luc MCF7: Max Inhibition” value in the test on TEAD1 [1] is reported as “A (A ≥ 75%)”. For the same compound, in the test with TEAD1 [3], the “TEAD1 Inh (palmitoylation)” value is 93%. The “TEAD2 Inh (palmitoylation)” value at TEAD2 [8] came out at 54%. In addition, at TEAD3 [9], the “TEAD3 Inh (palmitoylation)” value is on record as 90%. Further, on TEAD4 [10], the “TEAD4 Inh (palmitoylation)” value was found to be 52%.

Take `C=CC(=O)N1CC(/C=C/c2ccc(C(F)(F)F)cc2)C1` [Example 15]: the IC50 was ≤ 10 nM in the test with TEAD1 [1]; ≤ 100 nM with H2052 cells; 14 nM with TEAD1 [4]; 100 to 500 nM in the test with NCI-H226 cells [11] (Homo sapiens, 144 h, read-out: CPA NCI-H226 IC50 Ave); 179 nM on TEAD2 [5]; 4 nM against TEAD3 [6]. For the same compound, the “TEAD1-Luc MCF7: Max Inhibition” value in the test with TEAD1 [1] is on record as “A (A ≥ 75%)”. Moreover, in the test with H2052 cells, the “CPA H2052 Max Inh Ave” value is reported as “B (75% > B ≥ 50%)”. For the same compound, the “TEAD1 Inh (palmitoylation)” value in the test on TEAD1 [3] turned out to be 97%. Moreover, the “CPA NCI-H226 Max Inh Ave” value in the test with NCI-H226 cells [11] is listed as “B (75% > B ≥ 50%)”. The “TEAD2 Inh (palmitoylation)” value on TEAD2 [8] was 80%. Besides, the “TEAD3 Inh (palmitoylation)” value at TEAD3 [9] came out at 98%. Moreover, the “TEAD4 Inh (palmitoylation)” value on TEAD4 [10] is recorded as 80%.

On to `C=CC(=O)N1CCC(C#Cc2ccc(C(F)(F)F)cc2)C1` (stereo not drawn) [Example 38, 1-(3-((4-(trifluoromethyl)phenyl)ethynyl)pyrrolidin-1-yl)prop-2-en-1-one], for which the IC50 was ≤ 10 nM in the test with TEAD1 [1]; ≤ 100 nM in the test on NCI-H226 cells [2]; ≤ 100 nM in the test with H2052 cells; 8.7 nM in the test on TEAD1 [4]; 3.4 nM on TEAD2 [5] (overnight); 5.6 nM on TEAD3 [6] (overnight). Further, at TEAD4 [7], the IC50 was 15.5 nM. Moreover, the “TEAD1-Luc MCF7: Max Inhibition” value in the test on TEAD1 [1] is listed as “A (A ≥ 75%)”. The “CPA NCI-H226 Max Inh Ave” value in the test on NCI-H226 cells [2] is “B (75% > B ≥ 50%)”. In addition, the “CPA H2052 Max Inh Ave” value in the test on H2052 cells is “B (75% > B ≥ 50%)”. The “TEAD1 Inh (palmitoylation)” value in the test with TEAD1 [3] is reported as 93%. The “TEAD2 Inh (palmitoylation)” value on TEAD2 [8] stood at 69%. The “TEAD3 Inh (palmitoylation)” value on TEAD3 [9] is recorded as 95%. For the same compound, the “TEAD4 Inh (palmitoylation)” value at TEAD4 [10] is on record as 71%.
